Experimental data as given in patent US20260224516A1, “PHARMACEUTICAL FOR TREATING OR PREVENTING CHEMOTHERAPY-INDUCED PERIPHERAL NEUROPATHY” (NIPPON CHEMIPHAR CO., LTD., priority 2023, published 2026).

Assays:
[1] = tested on: oxaliplatin-induced peripheral neuropathy model mice; assay: Oxaliplatin-induced mouse neuropathic pain model (Example 7): mechanical allodynia, Uralyt and sodium bicarbonate; type: in vivo, male C57BL/6J mice; settings: 0.75 g/kg sodium bicarbonate oral twice per day for 13 days; OXP 3 mg/kg i.p. single dose; FIG. 14: day 10
Procedure: (§1) For the alkalinizing agent, the same test substance as Example 1 and sodium bicarbonate (in this description also referred to as baking soda, manufactured by Tokyo Chemical Industry Co., Ltd., purity: at least 99.0%) were used. Following weighing of the required amount of the sodium bicarbonate, sufficient injection water was added to dissolve the sodium bicarbonate and prepare a solution of the target concentration at the time of use.
(§2) In the Sham group and the control group, the injection water used as the solvent for the alkalinizing agent was used.
(§3) The same type of animals as Example 1 were used. Specifically, six-week old male C57BL/6J mice (from Japan SLC, Inc.) were used. The animals were provided with an approximately one-week acclimatization period, and only healthy individuals were then selected for testing. […]
(§4) Grouping was conducted using the pain-related scores evaluated on the day prior to starting the test (the day prior to test substance administration) as a reference, and specifically, by dividing the individuals into each of the groups to ensure the same averaged pain-related score for each group. […]
Following the OXP administration, the level of pain was evaluated over time. […] A pain evaluation was also conducted on a day prior to the start of alkalinizing agent administration, and this evaluation was recorded as the Pre value. […]

[2] = tested on: paclitaxel-induced peripheral neuropathy model mice; assay: Paclitaxel-induced mouse neuropathic pain model (Example 8): mechanical allodynia, Uralyt and sodium bicarbonate; type: in vivo, male C57BL/6J mice; settings: 0.75 g/kg sodium bicarbonate oral twice per day for 17 days; PTX 5 mg/kg i.p. single dose; FIG. 16: day 14
Procedure: as §1, §2, §3, §4
Following the PTX administration, the level of pain was evaluated over time. […] A pain evaluation was also conducted on a day prior to the start of alkalinizing agent administration, and this evaluation was recorded as the Pre value. […]

## O=C([O-])O.[Na+] [sodium bicarbonate]
[1]
  onset of mechanical allodynia (pain-related score): suppressed the onset of mechanical allodynia, but the effect was smaller than that observed for the Uralyt administration group
[2]
  onset of mechanical allodynia (pain-related score): suppressed the onset of mechanical allodynia, but the effect was smaller than that observed for the Uralyt administration group
